{"source": "ChEMBL document CHEMBL5223143", "about": "“Identification of novel benzimidazole derivatives as highly potent AMPK activators with anti-diabetic profiles” (Bioorg Med Chem Lett, 2023)", "key": {"[1]": {"biological_target": "AMPK alpha2/beta2/gamma1 (Homo sapiens) (UniProt P54646+O43741+P54619)", "sequence (O43741 whole entry, looked up)": "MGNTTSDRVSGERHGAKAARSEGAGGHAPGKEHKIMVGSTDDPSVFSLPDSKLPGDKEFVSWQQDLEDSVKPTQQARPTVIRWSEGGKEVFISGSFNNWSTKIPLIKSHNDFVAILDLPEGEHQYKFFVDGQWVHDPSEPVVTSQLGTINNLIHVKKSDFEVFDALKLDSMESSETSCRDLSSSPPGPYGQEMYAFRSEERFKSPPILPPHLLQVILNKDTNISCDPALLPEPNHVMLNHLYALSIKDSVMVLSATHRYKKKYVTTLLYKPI", "sequence (P54619 whole entry, looked up)": "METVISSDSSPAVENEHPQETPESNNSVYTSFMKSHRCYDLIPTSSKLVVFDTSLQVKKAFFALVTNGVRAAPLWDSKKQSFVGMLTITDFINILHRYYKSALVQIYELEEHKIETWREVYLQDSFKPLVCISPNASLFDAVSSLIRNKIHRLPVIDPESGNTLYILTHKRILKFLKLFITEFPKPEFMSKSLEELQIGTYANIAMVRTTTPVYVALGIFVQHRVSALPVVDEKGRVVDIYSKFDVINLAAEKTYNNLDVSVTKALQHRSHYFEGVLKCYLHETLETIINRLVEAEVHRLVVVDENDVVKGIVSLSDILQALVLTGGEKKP", "sequence (P54646 whole entry, looked up)": "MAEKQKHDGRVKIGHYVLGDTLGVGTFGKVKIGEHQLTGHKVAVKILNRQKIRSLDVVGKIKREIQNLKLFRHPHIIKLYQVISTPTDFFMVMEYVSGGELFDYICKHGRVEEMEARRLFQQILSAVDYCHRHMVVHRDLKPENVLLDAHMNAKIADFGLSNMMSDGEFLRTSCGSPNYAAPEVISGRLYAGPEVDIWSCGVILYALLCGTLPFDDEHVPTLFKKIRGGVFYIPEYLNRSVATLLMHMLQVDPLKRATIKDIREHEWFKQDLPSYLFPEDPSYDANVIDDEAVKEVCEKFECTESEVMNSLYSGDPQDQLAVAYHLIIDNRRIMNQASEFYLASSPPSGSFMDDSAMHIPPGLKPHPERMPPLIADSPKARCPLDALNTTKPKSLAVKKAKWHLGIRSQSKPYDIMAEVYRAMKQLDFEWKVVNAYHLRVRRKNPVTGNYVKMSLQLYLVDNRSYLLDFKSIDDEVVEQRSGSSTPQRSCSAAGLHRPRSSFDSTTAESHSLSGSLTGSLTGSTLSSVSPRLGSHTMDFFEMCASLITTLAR", "test": "Activation of human recombinant AMPK A2/B2/G1 assessed as increase in AMPK phosphorylation using FL-peptide as substrate incubated for 120 mins by EZ reader method", "assay_type": "protein-complex assay", "conditions": "filed as activator"}, "[2]": {"test_system": "L6", "test": "Activation of AMPK alpha2beta2gamma1 in rat L6 cells assessed as increase in AMPK phosphorylation by ELISA assay", "assay_type": "cell-based", "conditions": "filed as activator"}, "[3]": {"biological_target": "T1, Cytochrome P450 1A2 (Homo sapiens, UniProt P05177)", "T1 sequence (P05177 whole entry)": "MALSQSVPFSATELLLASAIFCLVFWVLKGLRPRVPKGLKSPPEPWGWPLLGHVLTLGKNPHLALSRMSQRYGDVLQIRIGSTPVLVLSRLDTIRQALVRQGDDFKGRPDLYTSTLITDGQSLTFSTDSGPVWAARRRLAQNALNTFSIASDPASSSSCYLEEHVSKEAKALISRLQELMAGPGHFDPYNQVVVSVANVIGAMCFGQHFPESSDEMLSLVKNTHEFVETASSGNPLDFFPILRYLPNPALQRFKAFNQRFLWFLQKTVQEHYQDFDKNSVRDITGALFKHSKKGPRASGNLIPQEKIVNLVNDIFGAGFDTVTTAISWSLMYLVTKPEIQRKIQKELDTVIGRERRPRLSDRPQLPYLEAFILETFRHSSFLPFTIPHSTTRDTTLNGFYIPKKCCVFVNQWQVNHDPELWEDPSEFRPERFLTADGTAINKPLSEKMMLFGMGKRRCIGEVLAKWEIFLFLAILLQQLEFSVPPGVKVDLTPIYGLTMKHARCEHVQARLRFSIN", "test": "Inhibition of CYP1A2 in human liver microsomes using 7-ethoxyresorufin as substrate", "assay_type": "ADME, Microsome"}, "[4]": {"biological_target": "Cytochrome P450 2C9 (Homo sapiens, UniProt P11712)", "sequence (P11712 whole entry)": "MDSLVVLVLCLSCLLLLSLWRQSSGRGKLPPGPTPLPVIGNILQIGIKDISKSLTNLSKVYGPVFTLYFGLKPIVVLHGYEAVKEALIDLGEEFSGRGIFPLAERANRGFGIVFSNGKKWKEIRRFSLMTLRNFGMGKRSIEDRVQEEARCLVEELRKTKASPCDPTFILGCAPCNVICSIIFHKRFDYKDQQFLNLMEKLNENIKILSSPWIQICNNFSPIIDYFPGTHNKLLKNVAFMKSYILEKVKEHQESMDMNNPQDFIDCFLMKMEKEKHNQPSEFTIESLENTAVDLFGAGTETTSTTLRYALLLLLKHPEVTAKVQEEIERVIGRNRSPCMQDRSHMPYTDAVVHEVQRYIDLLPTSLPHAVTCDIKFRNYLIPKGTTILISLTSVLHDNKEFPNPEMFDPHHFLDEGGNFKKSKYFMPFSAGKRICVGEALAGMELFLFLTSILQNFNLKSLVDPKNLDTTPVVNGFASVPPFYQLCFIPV", "test": "Inhibition of CYP2C9 in human liver microsomes using tolbutamide as substrate", "assay_type": "ADME, Microsome"}, "[5]": {"biological_target": "Cytochrome P450 2C19 (Homo sapiens, UniProt P33261)", "sequence (P33261 whole entry)": "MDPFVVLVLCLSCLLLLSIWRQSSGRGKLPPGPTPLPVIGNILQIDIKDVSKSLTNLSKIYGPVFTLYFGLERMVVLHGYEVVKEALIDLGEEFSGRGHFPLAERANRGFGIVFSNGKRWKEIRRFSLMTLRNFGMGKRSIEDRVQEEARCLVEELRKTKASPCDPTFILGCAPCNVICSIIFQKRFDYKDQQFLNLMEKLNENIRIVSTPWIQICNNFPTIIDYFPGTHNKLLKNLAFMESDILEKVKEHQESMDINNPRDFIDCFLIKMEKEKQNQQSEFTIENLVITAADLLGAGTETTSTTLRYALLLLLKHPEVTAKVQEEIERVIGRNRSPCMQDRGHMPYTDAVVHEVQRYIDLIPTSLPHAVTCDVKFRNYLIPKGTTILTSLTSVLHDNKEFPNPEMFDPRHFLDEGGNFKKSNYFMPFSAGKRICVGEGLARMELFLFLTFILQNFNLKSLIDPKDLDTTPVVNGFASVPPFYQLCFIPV", "test": "Inhibition of CYP2C19 in human liver microsomes using mephenytoin as substrate", "assay_type": "ADME, Microsome"}, "[6]": {"biological_target": "Cytochrome P450 2D6 (Homo sapiens, UniProt P10635)", "sequence (P10635 whole entry)": "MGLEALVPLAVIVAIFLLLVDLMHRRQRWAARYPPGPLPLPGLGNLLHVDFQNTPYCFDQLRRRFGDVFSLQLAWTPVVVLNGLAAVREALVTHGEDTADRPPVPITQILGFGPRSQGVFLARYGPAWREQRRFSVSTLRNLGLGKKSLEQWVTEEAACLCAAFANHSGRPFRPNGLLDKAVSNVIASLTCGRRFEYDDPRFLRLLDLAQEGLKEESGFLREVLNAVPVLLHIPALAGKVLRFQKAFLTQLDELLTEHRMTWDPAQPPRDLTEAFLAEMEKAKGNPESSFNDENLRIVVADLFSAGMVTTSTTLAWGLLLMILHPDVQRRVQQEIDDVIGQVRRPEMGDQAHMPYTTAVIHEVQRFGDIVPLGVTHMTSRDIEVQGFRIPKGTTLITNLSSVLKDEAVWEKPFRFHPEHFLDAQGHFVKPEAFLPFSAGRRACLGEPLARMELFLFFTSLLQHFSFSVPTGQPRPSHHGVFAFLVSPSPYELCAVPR", "test": "Inhibition of CYP2D6 in human liver microsomes using dextromethorphan as substrate", "assay_type": "ADME, Microsome"}, "[7]": {"biological_target": "Cytochrome P450 3A4 (Homo sapiens, UniProt P08684)", "sequence (P08684 whole entry)": "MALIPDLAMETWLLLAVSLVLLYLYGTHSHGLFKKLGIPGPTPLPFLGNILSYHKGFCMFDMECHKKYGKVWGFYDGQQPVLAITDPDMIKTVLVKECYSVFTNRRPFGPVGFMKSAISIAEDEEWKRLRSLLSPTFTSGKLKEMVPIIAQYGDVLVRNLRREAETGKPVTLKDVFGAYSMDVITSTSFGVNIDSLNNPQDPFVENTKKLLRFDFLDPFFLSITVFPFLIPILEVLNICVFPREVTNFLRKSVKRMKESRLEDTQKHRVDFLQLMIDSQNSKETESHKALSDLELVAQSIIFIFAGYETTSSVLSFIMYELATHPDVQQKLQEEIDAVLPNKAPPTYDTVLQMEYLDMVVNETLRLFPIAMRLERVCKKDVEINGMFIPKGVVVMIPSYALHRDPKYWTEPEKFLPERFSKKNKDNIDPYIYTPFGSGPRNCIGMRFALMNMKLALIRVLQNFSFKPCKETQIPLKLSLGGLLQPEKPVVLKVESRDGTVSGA", "test": "Inhibition of CYP3A4 in human liver microsomes using terfenedine as substrate", "assay_type": "ADME, Microsome"}, "[8]": {"test": "Metabolic stability in human liver microsomes assessed as compound remaining incubated for 30 mins", "assay_type": "ADME, Microsome", "conditions": "read-out: Stability"}, "[9]": {"test": "Metabolic stability in rat liver microsomes assessed as compound remaining incubated for 30 mins", "assay_type": "ADME, Microsome", "conditions": "read-out: Stability"}, "[10]": {"test": "Protein binding in serum (unknown origin) assessed as free fraction by equilibrium dialysis method", "assay_type": "ADME, cell-free"}, "[11]": {"test": "Total clearance in rat at 0.5 mg/kg,iv", "assay_type": "ADME, organism-based", "conditions": "in vivo"}, "[12]": {"test": "AUC in rat at 1 mg/kg,po", "assay_type": "ADME, organism-based", "design": "dose 1 mg/kg, route po", "conditions": "in vivo"}, "[13]": {"test": "Cmax in rat at 0.5 mg/kg,iv", "assay_type": "ADME, organism-based", "design": "dose 0.5 mg/kg, route iv", "conditions": "in vivo"}, "[14]": {"test": "[…] in rat liver at 0.5 mg/kg,iv", "assay_type": "ADME, organism-based"}, "[15]": {"test": "[…] in rat muscle tissue at 0.5 mg/kg,iv", "assay_type": "ADME, organism-based"}, "[16]": {"test_system": "Mus musculus", "test": "Antidiabetic activity against diabetic KKAy mouse model assessed as increase in ACC phosphorylation in skeletal muscle at 0.3 to 3 mg/kg,po bid", "assay_type": "functional, organism-based", "conditions": "dose 0.3-3 mg/kg"}, "[17]": {"test_system": "Mus musculus", "test": "Antidiabetic activity against diabetic KKAy mouse model assessed as acute glucose lowering effect at 0.3 to 3 mg/kg,po bid", "assay_type": "functional, organism-based", "conditions": "dose 0.3-3 mg/kg"}, "[18]": {"test_system": "Mus musculus", "test": "Antidiabetic activity against diabetic KKAy mouse model assessed as decrease in HbA1c level at 0.3 to 3 mg/kg,po bid observed upto 21 days", "assay_type": "functional, organism-based", "conditions": "dose 0.3-3 mg/kg, time <= 21.0 day"}, "[19]": {"test_system": "Mus musculus", "test": "Antidiabetic activity against diabetic KKAy mouse model assessed as decrease in plasma glucose level at 0.3 to 3 mg/kg,po bid observed upto 21 days", "assay_type": "functional, organism-based", "conditions": "dose 0.3-3 mg/kg, time <= 21.0 day"}}, "note": "Active and inactive are the calls of the source. The calls are words filed in the database; no cut-off is given here.", "data": [{"smiles": "O[C@@H]1CO[C@H]2[C@@H]1OC[C@H]2Oc1nc2nc(NCCCc3ccccc3)c(Cl)cc2[nH]1", "values": [{"measurement": "EC150", "setting": "[1]", "result": 15, "unit": "µM"}]}, {"smiles": "Cn1cc(-c2cc(F)c3c(c2)CC[C@@H]3Nc2nc3nc(O[C@@H]4CO[C@H]5[C@@H]4OC[C@H]5O)[nH]c3cc2Cl)cn1", "values": [{"measurement": "EC150", "setting": "[1]", "result": 0.0044, "unit": "µM"}, {"measurement": "EC150", "setting": "[2]", "result": 0.0847, "unit": "µM"}]}, {"smiles": "O[C@@H]1CO[C@H]2[C@@H]1OC[C@H]2Oc1nc2nc(NCc3ccccc3C(F)(F)F)c(Cl)cc2[nH]1", "values": [{"measurement": "EC150", "setting": "[1]", "result": 8.9, "unit": "µM"}]}, {"smiles": "O[C@@H]1CO[C@H]2[C@@H]1OC[C@H]2Oc1nc2nc(N[C@H]3CCc4ccccc43)c(Cl)cc2[nH]1", "values": [{"measurement": "EC150", "setting": "[1]", "result": 0.0031, "unit": "µM"}]}, {"smiles": "CS(=O)(=O)c1ccccc1CNc1nc2nc(O[C@@H]3CO[C@H]4[C@@H]3OC[C@H]4O)[nH]c2cc1Cl", "values": [{"measurement": "EC150", "setting": "[1]", "result": 23, "unit": "µM"}]}, {"smiles": "O[C@@H]1CO[C@H]2[C@@H]1OC[C@H]2Oc1nc2nc(NCc3ccccc3)c(Cl)cc2[nH]1", "values": [{"measurement": "EC150", "setting": "[1]", "result": 0.16, "unit": "µM"}]}, {"smiles": "OCc1ccccc1CNc1nc2nc(O[C@@H]3CO[C@H]4[C@@H]3OC[C@H]4O)[nH]c2cc1Cl", "values": [{"measurement": "EC150", "setting": "[1]", "result": 9.5, "unit": "µM"}]}, {"smiles": "COCCOc1cc(F)c2c(c1)CC[C@@H]2Nc1nc2nc(O[C@@H]3CO[C@H]4[C@@H]3OC[C@H]4O)[nH]c2cc1Cl", "values": [{"measurement": "EC150", "setting": "[1]", "result": 0.0016, "unit": "µM"}, {"measurement": "EC150", "setting": "[2]", "result": 0.0443, "unit": "µM"}, {"measurement": "IC50", "setting": "[3]", "result": "> 20", "unit": "µM"}, {"measurement": "IC50", "setting": "[4]", "result": "> 20", "unit": "µM"}, {"measurement": "IC50", "setting": "[5]", "result": "> 20", "unit": "µM"}, {"measurement": "IC50", "setting": "[6]", "result": "> 20", "unit": "µM"}, {"measurement": "IC50", "setting": "[7]", "result": "> 20", "unit": "µM"}, {"measurement": "remaining at 0.5 h", "setting": "[8]", "result": 91, "unit": "%"}, {"measurement": "remaining at 0.5 h", "setting": "[9]", "result": 81, "unit": "%"}, {"measurement": "fraction unbound", "setting": "[10]", "result": 0.031}, {"measurement": "clearance", "setting": "[11]", "result": 0.541, "unit": "L/h/kg"}, {"measurement": "AUC", "setting": "[12]", "result": 0.347, "unit": "µg·h/mL"}, {"measurement": "Cmax", "setting": "[13]", "result": 0.0654, "unit": "µg/mL"}, {"measurement": "Kp", "setting": "[14]", "result": 5.64}, {"measurement": "Kp", "setting": "[15]", "result": 1.51}, {"measurement": "Activity", "setting": "[16]", "result": "Dose-Dependent Effect"}, {"measurement": "Activity", "setting": "[17]", "result": "Active"}, {"measurement": "Activity", "setting": "[18]", "result": "Dose-Dependent Effect"}, {"measurement": "Activity", "setting": "[19]", "result": "Active"}]}, {"smiles": "O[C@@H]1CO[C@H]2[C@@H]1OC[C@H]2Oc1nc2nc(N[C@H]3CCc4cccc(F)c43)c(Cl)cc2[nH]1", "values": [{"measurement": "EC150", "setting": "[1]", "result": 0.002, "unit": "µM"}, {"measurement": "EC150", "setting": "[2]", "result": 1.06, "unit": "µM"}]}, {"smiles": "O[C@@H]1CO[C@H]2[C@@H]1OC[C@H]2Oc1nc2nc(NCc3ccccc3F)c(Cl)cc2[nH]1", "values": [{"measurement": "EC150", "setting": "[1]", "result": 0.048, "unit": "µM"}]}, {"smiles": "CC(=O)Nc1cc(F)c2c(c1)CC[C@@H]2Nc1nc2nc(O[C@@H]3CO[C@H]4[C@@H]3OC[C@H]4O)[nH]c2cc1Cl", "values": [{"measurement": "EC150", "setting": "[1]", "result": 0.0047, "unit": "µM"}, {"measurement": "EC150", "setting": "[2]", "result": 0.584, "unit": "µM"}]}, {"smiles": "CN(Cc1ccccc1)c1nc2nc(O[C@@H]3CO[C@H]4[C@@H]3OC[C@H]4O)[nH]c2cc1Cl", "values": [{"measurement": "EC150", "setting": "[1]", "result": 4.9, "unit": "µM"}]}]}
